Source: BigSolDB 2.1

CCCCCCCCCCCCCCCCCC(=O)OCCO
Settings | solubility (mole fraction)
in 1,1,1-trichloroethane, 287.65 K | 0.0097
in 1,1,1-trichloroethane, 290.45 K | 0.0147
in 1,1,1-trichloroethane, 293.65 K | 0.0227
in 1,1,1-trichloroethane, 295.75 K | 0.0339
in 1,1,1-trichloroethane, 298.55 K | 0.0504
in 1,1,1-trichloroethane, 300.95 K | 0.0723
in 1,1,1-trichloroethane, 304.25 K | 0.108
in 1,1,1-trichloroethane, 307.75 K | 0.164
in 1,1,1-trichloroethane, 311.65 K | 0.239
in 1,1,1-trichloroethane, 314.45 K | 0.348
in 1,1,2-trichlorotrifluoroethane, 290.45 K | 0.0013
in 1,1,2-trichlorotrifluoroethane, 295.55 K | 0.0029
in 1,1,2-trichlorotrifluoroethane, 303.45 K | 0.0077
in 1,1,2-trichlorotrifluoroethane, 303.65 K | 0.0087
in 1,1,2-trichlorotrifluoroethane, 306.05 K | 0.0124
in 1,1,2-trichlorotrifluoroethane, 308.05 K | 0.0192
in 1,1,2-trichlorotrifluoroethane, 309.85 K | 0.0307
in 1,1,2-trichlorotrifluoroethane, 311.45 K | 0.049
in 1,1,2-trichlorotrifluoroethane, 312.65 K | 0.0769
in 1,1,2-trichlorotrifluoroethane, 314.15 K | 0.128
in 1,1,2-trichlorotrifluoroethane, 316.75 K | 0.276
in cyclohexane, 282.05 K | 0.0007
in cyclohexane, 288.35 K | 0.0015
in cyclohexane, 294.65 K | 0.0033
in cyclohexane, 298.15 K | 0.0067
in cyclohexane, 299.15 K | 0.0088
in cyclohexane, 300.25 K | 0.0128
in cyclohexane, 300.85 K | 0.0135
in cyclohexane, 302.25 K | 0.0199
in cyclohexane, 303.85 K | 0.314
in cyclohexane, 305.45 K | 0.0499
in cyclohexane, 307.15 K | 0.0774
in cyclohexane, 309.35 K | 0.129
in cyclohexane, 312.46 K | 0.208
in cyclohexane, 315.56 K | 0.303
in ethyl acetate, 297.45 K | 0.0118
in ethyl acetate, 298.35 K | 0.016
in ethyl acetate, 299.15 K | 0.0204
in ethyl acetate, 299.75 K | 0.0248
in ethyl acetate, 300.95 K | 0.0332
in ethyl acetate, 302.15 K | 0.0433
in ethyl acetate, 305.05 K | 0.065
in ethyl acetate, 306.05 K | 0.0868
in ethyl acetate, 308.75 K | 0.125
in ethyl acetate, 312.75 K | 0.233
in n-butyl acetate, 294.45 K | 0.0094
in n-butyl acetate, 295.35 K | 0.0174
in n-butyl acetate, 297.45 K | 0.0304
in n-butyl acetate, 298.65 K | 0.0507
in n-butyl acetate, 302.65 K | 0.0761
in n-butyl acetate, 306.75 K | 0.129
in n-butyl acetate, 313.15 K | 0.267
in n-hexyl acetate, 293.95 K | 0.0267
in n-hexyl acetate, 299.35 K | 0.0423
in n-hexyl acetate, 302.35 K | 0.0633
in n-hexyl acetate, 305.95 K | 0.0919
in n-hexyl acetate, 308.15 K | 0.128
in n-hexyl acetate, 309.75 K | 0.158
in n-hexyl acetate, 311.65 K | 0.202
in n-hexyl acetate, 313.73 K | 0.256
in n-hexyl acetate, 317.15 K | 0.339
in n-hexyl acetate, 320.05 K | 0.464
in n-hexyl acetate, 332.85 K | 0.631
in n-pentyl acetate, 294.95 K | 0.0324
in n-pentyl acetate, 298.95 K | 0.0453
in n-pentyl acetate, 300.85 K | 0.168
in n-pentyl acetate, 301.75 K | 0.0655
in n-pentyl acetate, 303.75 K | 0.0897
in n-pentyl acetate, 305.75 K | 0.121
in n-pentyl acetate, 311.95 K | 0.232
in n-pentyl acetate, 314.95 K | 0.316
in n-pentyl acetate, 318.45 K | 0.447
in n-pentyl acetate, 322.85 K | 0.657
in n-propyl acetate, 297.75 K | 0.0357
in n-propyl acetate, 299.95 K | 0.0493
in n-propyl acetate, 302.15 K | 0.0655
in n-propyl acetate, 304.35 K | 0.0992
in n-propyl acetate, 306.45 K | 0.137
in n-propyl acetate, 308.75 K | 0.174
in n-propyl acetate, 311.85 K | 0.228
in n-propyl acetate, 314.95 K | 0.315
in n-propyl acetate, 317.85 K | 0.405
in n-propyl acetate, 322.15 K | 0.566

CCCCCCCCCCCCCCCCCCCC(=O)OCCO
Settings | solubility (mole fraction)
in 1,1,1-trichloroethane, 296.75 K | 0.0241
in 1,1,1-trichloroethane, 299.75 K | 0.0469
in 1,1,1-trichloroethane, 303.75 K | 0.0762
in 1,1,1-trichloroethane, 309.55 K | 0.142
in MIBK, 294.65 K | 0.0026
in MIBK, 298.05 K | 0.0049
in MIBK, 299.25 K | 0.008
in MIBK, 302.65 K | 0.0176
in MIBK, 307.55 K | 0.0486
in MIBK, 311.75 K | 0.173
in cyclohexane, 296.35 K | 0.003
in cyclohexane, 298.75 K | 0.0044
in cyclohexane, 301.55 K | 0.008
in cyclohexane, 303.25 K | 0.0189
in cyclohexane, 305.65 K | 0.0367
in cyclohexane, 307.25 K | 0.069
in cyclohexane, 310.55 K | 0.122
in ethanol, 311.25 K | 0.0006
in ethanol, 314.65 K | 0.0012
in ethanol, 319.15 K | 0.002
in ethanol, 322.15 K | 0.005
in ethanol, 324.15 K | 0.0139
in isopropanol, 302.85 K | 0.0002
in isopropanol, 304.05 K | 0.0005
in isopropanol, 306.35 K | 0.0008
in isopropanol, 309.85 K | 0.001
in isopropanol, 310.65 K | 0.0017
in isopropanol, 310.95 K | 0.0026
in isopropanol, 313.15 K | 0.0028
in isopropanol, 316.15 K | 0.0062
in isopropanol, 318.15 K | 0.0134
in isopropanol, 319.85 K | 0.082
in isopropanol, 319.95 K | 0.193
in n-butanol, 303.75 K | 0.0006
in n-butanol, 303.95 K | 0.001
in n-butanol, 306.55 K | 0.0018
in n-butanol, 306.75 K | 0.0019
in n-butanol, 307.95 K | 0.0027
in n-butanol, 308.85 K | 0.0039
in n-butanol, 310.85 K | 0.0059
in n-butanol, 313.75 K | 0.0122
in n-butanol, 315.75 K | 0.0201
in n-butanol, 317.35 K | 0.0783
in n-butanol, 317.45 K | 0.151
in n-butyl acetate, 294.75 K | 0.0036
in n-butyl acetate, 296.55 K | 0.0065
in n-butyl acetate, 297.45 K | 0.009
in n-butyl acetate, 299.85 K | 0.0127
in n-butyl acetate, 301.05 K | 0.0184
in n-butyl acetate, 303.45 K | 0.0288
in n-butyl acetate, 307.35 K | 0.0655
in n-butyl acetate, 312.35 K | 0.147
in n-butyl acetate, 312.85 K | 0.172
in n-butyl acetate, 313.35 K | 0.185
in trichloroethylene, 297 K | 0.0428
in trichloroethylene, 299.25 K | 0.0575
in trichloroethylene, 304.25 K | 0.104
in trichloroethylene, 307.7 K | 0.15
in trichloroethylene, 311.3 K | 0.216
